# Reference: patent publication US20030186997A1, “2,5-Dihydro-pyrazolo[3,4-d]pyrimidin-4-ones with an anticonsulsive action and methods for producing the same” (priority 2000, published 2003)
# Assays:
# [1] = tested on: s.c. pentetrazole; assay: Anticonvulsant action, s.c. pentetrazole (PTZ), mouse i.p.; format: in vivo; settings: ip, read-out: Action in % of the protected animals
# Method: (§1) The compounds according to the invention were tested for their anticonvulsant action in vivo after i.p. administration to mice according to the international customary standard (Pharmac. Weekblad, Sc. Ed. 14, 132 (1992) and Antiepileptic Drugs, Third Ed., Raven Press, New York 1989) (Table 1). [table]
# [2] = Octanol/water partition coefficient; format: physicochemical
# [3] = tested on: maximal electroshock; assay: Anticonvulsant action, maximal electroshock (MES), mouse i.p.; format: in vivo; settings: ip, read-out: Action in % of the protected animals
# Method: as §1
# [4] = Neurotoxicity (NT50); format: in vivo; settings: rat
# Method: (§2) This compound is also active in convulsion models using bicuculline and picrotoxin as convulsion-inducing cause. Compound 14 (5-(2-methylbenzyl)-2-methyl-2,5-dihydropyrazolo[3,4-d]pyrimidin-4-one) is likewise strongly anticonvulsant with a large therapeutic breadth (ED50 (rat p.o.) =9 mg/kg, NT50>300 mg/kg). Compound 21 has a similar pharmacological profile (ED50 (rat p.o.) =3 mg/kg, NT50>300 mg/kg).
# [5] = tested on: maximal electroshock; assay: Maximal electroshock in the rat, p.o.; format: in vivo; settings: po
# Method: as §2
# [6] = tested on: picrotoxin; format: in vivo
# Method: as §2
# [7] = tested on: bicuculline; assay: Convulsion model using bicuculline; format: in vivo; settings: bicuculline as convulsion-inducing cause
# Method: as §2
Structure (SMILES),logP [2],melting point [°C],responders at 100 mg/kg [1] [%],responders at 100 mg/kg [3] [%],responders at 300 mg/kg [1] [%],further results
"O=c1c2c[nH]nc2ncn1Cc1ccccc1 [5-benzyl-2,5-dihydropyrazolo[3,4-d]pyrimidin-4-one, reference compound]",0.47,,,,,responders at 30 mg/kg ([1]; dose 30 mg/kg): 100%; responders at 30 mg/kg [3]: 100%
"NC(=O)N1c2ccccc2C=Cc2ccccc21 [Carbamazepine, reference compound]",,,0,100,,
"O=c1c2c[nH]nc2ncn1Cc1ccccc1Cl [Compound 1, 5-(2-chlorobenzyl)-2,5-dihydropyrazolo[3,4-d]pyrimidin-4-one]",1.14,186 to 187,80,,,NT50 (neurotoxicity) [4]: > 500 mg/kg; ED50 [5]: 18 mg/kg; activity in convulsion model [6]: active; activity in convulsion model [7]: active; responders at 30 mg/kg [3]: 100%
"O=c1c2c[nH]nc2ncn1Cc1ccc(Cl)cc1 [Compound 2, 5-(4-chlorobenzyl)-2,5-dihydropyrazolo[3,4-d]pyrimidin-4-one]",1.34,246 to 247,,33,,
"O=c1c2c[nH]nc2ncn1Cc1ccc(F)cc1 [Compound 3, 5-(4-fluorobenzyl)-2,5-dihydropyrazolo[3,4-d]pyrimidin-4-one]",0.62,260 to 261,,33,60,
"O=c1c2c[nH]nc2ncn1Cc1ccc(Cl)cc1Cl [Compound 4, 5-(2,4-dichlorobenzyl)-2,5-dihydropyrazolo[3,4-d]-pyrimidin-4-one]",1.96,236 to 237,,100,40,
"O=c1c2c[nH]nc2ncn1Cc1c(F)cccc1F [Compound 5, 5-(2,6-difluorobenzyl)-2,5-dihydropyrazolo[3,4-d]-pyrimidin-4-one]",0.28,214 to 216,,,,responders at 30 mg/kg [3]: 100%
"Cc1ccccc1Cn1cnc2n[nH]cc2c1=O [Compound 6, 5-(2-methylbenzyl)-2,5-dihydropyrazolo[3,4-d]pyrimidin-4-one]",1.36,221 to 222,,67,100,
"CCCC(CCC)C(=O)O [Valproate, reference compound]",,,30,0,,

# Second part, led by results:
logP [2],melting point [°C],Structure (SMILES),responders at 100 mg/kg [1] [%],responders at 100 mg/kg [3] [%],responders at 300 mg/kg [1] [%],further results
0.78,168 to 171,"O=c1c2c[nH]nc2ncn1Cc1ccccc1C(F)(F)F [Compound 8, 5-(2-trifluoromethylbenzyl)-2,5-dihydropyrazolo[3,4-d]-pyrimidin-4-one]",20,67,,
0.72,202 to 204,"Cn1cc2c(=O)n(Cc3ccccc3)cnc2n1 [Compound 13, 5-benzyl-2-methyl-2,5-dihydropyrazolo[3,4-d]pyrimidin-4-one]",,100,,
1.76,185 to 186,"Cc1ccccc1Cn1cnc2nn(C)cc2c1=O [Compound 14, 5-(2-methylbenzyl)-2-methyl-2,5-dihydropyrazolo[3,4-d]-pyrimidin-4-one]",80,,,ED50 [5]: 9 mg/kg; responders at 30 mg/kg [3]: 100%
0.92,160 to 162,"COc1ccccc1Cn1cnc2nn(C)cc2c1=O [Compound 17, 5-(2-methoxybenzyl)-2-methyl-2,5-dihydropyrazolo[3,4-d]-pyrimidin-4-one]",,100,100,
1.56,169 to 170,"Cn1cc2c(=O)n(Cc3cccc(Cl)c3)cnc2n1 [Compound 19, 5-(3-chlorobenzyl) -2-methyl-2,5-dihydropyrazolo[3,4-d]-pyrimidin-4-one]",,100,,
0.67,226 to 228,"Cn1cc2c(=O)n(Cc3c(F)cccc3F)cnc2n1 [Compound 21, 5-(2,6-difluorobenzyl)-2-methyl-2,5-dihydropyrazolo[3,4-d]pyrimidin-4-one]",80,,,ED50 [5]: 3 mg/kg; responders at 30 mg/kg [3]: 100%
1.43,185 to 187,"CCn1cc2c(=O)n(Cc3c(F)cccc3F)cnc2n1 [Compound 37, 5-(2,6-difluorobenzyl)-2-ethyl-2,5-dihydropyrazolo[3,4-d]-pyrimidin-4-one]",,80,20,
1.88,159 to 161,"CC(C)n1cc2c(=O)n(Cc3c(F)cccc3Cl)cnc2n1 [Compound 43, 5-(2-chloro-6-fluorobenzyl)-2-isopropyl-2,5-dihydropyrazolo[3,4-d]pyrimidin-4-one]",,,33,responders at 300 mg/kg ([3]; dose 300 mg/kg): 100%
2.59,167 to 168,"O=c1c2cn(Cc3ccccc3Cl)nc2ncn1Cc1ccccc1Cl [Compound 58, 2,5-bis(2-chlorobenzyl)-2,5-dihydropyrazolo[3,4-d]-pyrimidin-4-one]",,,,
1.67,128 to 130,"O=c1c2cn(CC3CCCO3)nc2ncn1Cc1ccccc1Cl (centres unmarked) [Compound 60, 5-(2-chlorobenzyl)-2-tetrahydrofuran-2-ylmethyl-2,5-dihydropyrazolo[3,4-d]pyrimidin-4-one]",,67,,
,201 to 202,"Cc1nc2nn(C)cc2c(=O)n1Cc1c(F)cccc1F [Compound 64, 5-(2,6-difluorobenzyl)-2,6-dimethyl-2,5-dihydropyrazolo[3,4-d]pyrimidin-4-one]",,,,
